US7642245B2, “Antibacterial compounds having a (pyrrole carboxamide)-(benzamide)-(imidazole carboxamide) motif” (Oscient Pharmaceuticals Corporation, priority 2002, dated 2010)

What was measured:
E. faecalis ATCC 29212 = test: MIC, NCCLS broth microdilution; assay type: cell-based, Enterococcus faecalis; details: C = E. faecalis ATCC 29212
Excerpt: (§1) In vitro biological activity data were collected for a variety of microorganisms, including Staphylococcus aureus (ATCC 27660, a methicillin resistant strain (MRSA); ATCC 13709, a methicillin sensitive strain (MSSA)), Enterococcus faecalis (ATCC 29212), Bacillus cereus (ATCC 11778), Streptococcus pneumoniae (ATCC 49619), Candida albicans (ATCC 38247), Escherichia coli (ATCC 25922), and Moraxella (now Branhamella) catarrhalis (ATCC 25238).
(§2) The minimal inhibition concentration (MIC) of these compounds was determined using the National Committee for Clinical Laboratory Standards (NCCLS) broth microdilution assay in microtiter plates, as set forth in: (1) the guidelines of the National Committee for Clinical Laboratory Standards (NCCLS) Document M7-A4 (NCCLS, 1997); (2) the guidelines of the National Committee for Clinical Laboratory Standards (NCCLS) Document M11-A4 (NCCLS, 1997); and (3) the guidelines and reference method of the National Committee for Clinical Laboratory Standards (NCCLS) Document M27-T (NCCLS, 1995). For antifungal assays, the method recommended in Murray, P R., 1995 Manual of Clinical Microbiology (ASM Press, Washington, DC.), was employed.

C. albicans ATCC 38247 = test: MIC, antifungal assay; assay type: cell-based, Candida albicans; details: F = C. albicans ATCC 38247
Excerpt: as §1, §2

S. aureus ATCC 27660 = test: MIC, NCCLS broth microdilution; assay type: cell-based, Staphylococcus aureus; details: B = S. aureus ATCC 27660 (MRSA)
Excerpt: as §1, §2

S. aureus ATCC 13709 = test: MIC, NCCLS broth microdilution; assay type: cell-based, Staphylococcus aureus; details: A = S. aureus ATCC 13709 (MSSA)
Excerpt: as §1, §2

E. coli ATCC 25922 = test: MIC, NCCLS broth microdilution; assay type: cell-based, Escherichia coli; details: G = E. coli ATCC 25922
Excerpt: as §1, §2

S. pneumoniae ATCC 49619 = test: MIC, NCCLS broth microdilution; assay type: cell-based, Streptococcus pneumoniae; details: E = S. pneumoniae ATCC 49619
Excerpt: as §1, §2

B. cereus ATCC 11778 = test: MIC, NCCLS broth microdilution; assay type: cell-based, Bacillus cereus; details: D = B. cereus ATCC 11778
Excerpt: as §1, §2

[1] = system: M. catarrhalis (ATCC 25238); test: MIC, NCCLS broth microdilution; assay type: cell-based, Moraxella (now Branhamella) catarrhalis; details: H = M. catarrhalis (ATCC 25238)
Excerpt: as §1, §2

For `CC(S)CN1CCN(CCNC(=O)c2nc(NC(=O)c3ccc(NC(=O)c4cc(NC(=O)c5cc6ccccc6cn5)cn4C)cc3)cn2C)CC1` (centres unmarked) [Compound A-77], the “Minimum Inhibitory Concentration (MIC)” value (E. faecalis ATCC 29212) was “+++ (MIC ≦ 4 μg/mL)”, the “Minimum Inhibitory Concentration (MIC)” value (C. albicans ATCC 38247) was >32 µg/mL and the “Minimum Inhibitory Concentration (MIC)” value (S. aureus ATCC 27660) was “++ (4 < MIC < 12 μg/mL)”. For the same compound, the “Minimum Inhibitory Concentration (MIC)” value (S. aureus ATCC 13709) was “+++ (MIC ≦ 4 μg/mL)”, the “Minimum Inhibitory Concentration (MIC)” value (E. coli ATCC 25922) was >32 µg/mL and the “Minimum Inhibitory Concentration (MIC)” value (S. pneumoniae ATCC 49619) was “+++ (MIC ≦ 4 μg/mL)”. The “Minimum Inhibitory Concentration (MIC)” value (B. cereus ATCC 11778) was “+++ (MIC ≦ 4 μg/mL)” and the “Minimum Inhibitory Concentration (MIC)” value [1] was “+ (12 ≦ MIC ≦ 32 μg/mL)”.

With `CCC(O)CN1CCN(CCNC(=O)c2nc(NC(=O)c3ccc(NC(=O)c4cc(NC(=O)c5cc6ccccc6cn5)cn4C)cc3)cn2C)CC1` (centres unmarked) [Compound A-78] the “Minimum Inhibitory Concentration (MIC)” value (E. faecalis ATCC 29212) was “+++ (MIC ≦ 4 μg/mL)”, the “Minimum Inhibitory Concentration (MIC)” value (C. albicans ATCC 38247) was >32 µg/mL and the “Minimum Inhibitory Concentration (MIC)” value (S. aureus ATCC 27660) was “+++ (MIC ≦ 4 μg/mL)”. The “Minimum Inhibitory Concentration (MIC)” value (S. aureus ATCC 13709) was “+++ (MIC ≦ 4 μg/mL)”, the “Minimum Inhibitory Concentration (MIC)” value (E. coli ATCC 25922) was “+ (12 ≦ MIC ≦ 32 μg/mL)” and the “Minimum Inhibitory Concentration (MIC)” value (S. pneumoniae ATCC 49619) was “+++ (MIC ≦ 4 μg/mL)”. For the same compound, the “Minimum Inhibitory Concentration (MIC)” value (B. cereus ATCC 11778) was “+++ (MIC ≦ 4 μg/mL)” and the “Minimum Inhibitory Concentration (MIC)” value [1] was “+++ (MIC ≦ 4 μg/mL)”.

`Cn1cc(NC(=O)c2cc3ccccc3cn2)cc1C(=O)Nc1ccc(C(=O)Nc2cn(C)c(C(=O)NCCN3CCN(C(=O)C4OC(O)C(O)C(O)C4O)CC3)n2)cc1` (centres unmarked) [Compound A-75] was tested, and the “Minimum Inhibitory Concentration (MIC)” value (E. faecalis ATCC 29212) was “+++ (MIC ≦ 4 μg/mL)”, the “Minimum Inhibitory Concentration (MIC)” value (C. albicans ATCC 38247) was >32 µg/mL and the “Minimum Inhibitory Concentration (MIC)” value (S. aureus ATCC 27660) was “+++ (MIC ≦ 4 μg/mL)”. For the same compound, the “Minimum Inhibitory Concentration (MIC)” value (S. aureus ATCC 13709) was “+++ (MIC ≦ 4 μg/mL)”, the “Minimum Inhibitory Concentration (MIC)” value (E. coli ATCC 25922) was >32 µg/mL and the “Minimum Inhibitory Concentration (MIC)” value (S. pneumoniae ATCC 49619) was “+++ (MIC ≦ 4 μg/mL)”. The “Minimum Inhibitory Concentration (MIC)” value (B. cereus ATCC 11778) was “+++ (MIC ≦ 4 μg/mL)” and the “Minimum Inhibitory Concentration (MIC)” value [1] was >32 µg/mL.

In the case of `Cn1cc(NC(=O)c2ccc(Cl)cc2F)cc1C(=O)Nc1ccc(C(=O)Nc2cn(C)c(C(=O)NCCN3CCC(O)CC3)n2)cc1` [Compound A-4], the “Minimum Inhibitory Concentration (MIC)” value (E. faecalis ATCC 29212) is reported as “+++ (MIC ≦ 4 μg/mL)”, the “Minimum Inhibitory Concentration (MIC)” value (C. albicans ATCC 38247) is reported as “+ (12 ≦ MIC ≦ 32 μg/mL)” and the “Minimum Inhibitory Concentration (MIC)” value (S. aureus ATCC 27660) is reported as “+++ (MIC ≦ 4 μg/mL)”. The “Minimum Inhibitory Concentration (MIC)” value (S. aureus ATCC 13709) was “+++ (MIC ≦ 4 μg/mL)”, the “Minimum Inhibitory Concentration (MIC)” value (E. coli ATCC 25922) was “++ (4 < MIC < 12 μg/mL)” and the “Minimum Inhibitory Concentration (MIC)” value (S. pneumoniae ATCC 49619) was “+++ (MIC ≦ 4 μg/mL)”. The “Minimum Inhibitory Concentration (MIC)” value (B. cereus ATCC 11778) was “+++ (MIC ≦ 4 μg/mL)” and the “Minimum Inhibitory Concentration (MIC)” value [1] was “+++ (MIC ≦ 4 μg/mL)”.

With `Cn1cc(NC(=O)c2cc3ccccc3cn2)cc1C(=O)Nc1ccc(C(=O)Nc2cn(C)c(C(=O)NCCN3CCN(CCOC(=O)CNS(=O)(=O)O)CC3)n2)cc1` [Compound A-73] the “Minimum Inhibitory Concentration (MIC)” value (E. faecalis ATCC 29212) was “+++ (MIC ≦ 4 μg/mL)”, the “Minimum Inhibitory Concentration (MIC)” value (C. albicans ATCC 38247) was >32 µg/mL and the “Minimum Inhibitory Concentration (MIC)” value (S. aureus ATCC 27660) was “+++ (MIC ≦ 4 μg/mL)”. The “Minimum Inhibitory Concentration (MIC)” value (S. aureus ATCC 13709) was “+++ (MIC ≦ 4 μg/mL)”, the “Minimum Inhibitory Concentration (MIC)” value (E. coli ATCC 25922) was >32 µg/mL and the “Minimum Inhibitory Concentration (MIC)” value (S. pneumoniae ATCC 49619) was “+++ (MIC ≦ 4 μg/mL)”. The “Minimum Inhibitory Concentration (MIC)” value (B. cereus ATCC 11778) was “+++ (MIC ≦ 4 μg/mL)” and the “Minimum Inhibitory Concentration (MIC)” value [1] was >32 µg/mL.

`Cn1cc(NC(=O)c2cc3ccccc3cn2)cc1C(=O)Nc1ccc(C(=O)Nc2cn(C)c(C(=O)NCCNCCN3CCCC3)n2)cc1` [Compound A-36] was tested, and the “Minimum Inhibitory Concentration (MIC)” value (E. faecalis ATCC 29212) was “+++ (MIC ≦ 4 μg/mL)”, the “Minimum Inhibitory Concentration (MIC)” value (C. albicans ATCC 38247) was “+ (12 ≦ MIC ≦ 32 μg/mL)” and the “Minimum Inhibitory Concentration (MIC)” value (S. aureus ATCC 27660) was “+++ (MIC ≦ 4 μg/mL)”. The “Minimum Inhibitory Concentration (MIC)” value (S. aureus ATCC 13709) was “+++ (MIC ≦ 4 μg/mL)”, the “Minimum Inhibitory Concentration (MIC)” value (E. coli ATCC 25922) was >32 µg/mL and the “Minimum Inhibitory Concentration (MIC)” value (S. pneumoniae ATCC 49619) was “+++ (MIC ≦ 4 μg/mL)”. For the same compound, the “Minimum Inhibitory Concentration (MIC)” value (B. cereus ATCC 11778) was “+++ (MIC ≦ 4 μg/mL)” and the “Minimum Inhibitory Concentration (MIC)” value [1] was “++ (4 < MIC < 12 μg/mL)”.

`Cn1cc(NC(=O)c2cc3ccccc3cn2)cc1C(=O)Nc1ccc(C(=O)Nc2cn(C)c(C(=O)NCCN3CCCCCC3)n2)cc1` [Compound A-24] was tested, and the “Minimum Inhibitory Concentration (MIC)” value (E. faecalis ATCC 29212) was “+++ (MIC ≦ 4 μg/mL)”, the “Minimum Inhibitory Concentration (MIC)” value (C. albicans ATCC 38247) was “++ (4 < MIC < 12 μg/mL)” and the “Minimum Inhibitory Concentration (MIC)” value (S. aureus ATCC 27660) was “+++ (MIC ≦ 4 μg/mL)”. For the same compound, the “Minimum Inhibitory Concentration (MIC)” value (S. aureus ATCC 13709) was “+++ (MIC ≦ 4 μg/mL)”, the “Minimum Inhibitory Concentration (MIC)” value (E. coli ATCC 25922) was >32 µg/mL and the “Minimum Inhibitory Concentration (MIC)” value (S. pneumoniae ATCC 49619) was “+++ (MIC ≦ 4 μg/mL)”. For the same compound, the “Minimum Inhibitory Concentration (MIC)” value (B. cereus ATCC 11778) was “+++ (MIC ≦ 4 μg/mL)” and the “Minimum Inhibitory Concentration (MIC)” value [1] was “+++ (MIC ≦ 4 μg/mL)”.

With `Cn1cc(NC(=O)c2cc3ccccc3cn2)cc1C(=O)Nc1ccc(C(=O)Nc2cn(C)c(C(=O)NCCN3CCC(OC(=O)CN)CC3)n2)cc1` [Compound A-67] the “Minimum Inhibitory Concentration (MIC)” value (E. faecalis ATCC 29212) was “+++ (MIC ≦ 4 μg/mL)”, the “Minimum Inhibitory Concentration (MIC)” value (C. albicans ATCC 38247) was “++ (4 < MIC < 12 μg/mL)” and the “Minimum Inhibitory Concentration (MIC)” value (S. aureus ATCC 27660) was “+++ (MIC ≦ 4 μg/mL)”. For the same compound, the “Minimum Inhibitory Concentration (MIC)” value (S. aureus ATCC 13709) was “+++ (MIC ≦ 4 μg/mL)”, the “Minimum Inhibitory Concentration (MIC)” value (E. coli ATCC 25922) was “+ (12 ≦ MIC ≦ 32 μg/mL)” and the “Minimum Inhibitory Concentration (MIC)” value (S. pneumoniae ATCC 49619) was “+++ (MIC ≦ 4 μg/mL)”. For the same compound, the “Minimum Inhibitory Concentration (MIC)” value (B. cereus ATCC 11778) was “+++ (MIC ≦ 4 μg/mL)” and the “Minimum Inhibitory Concentration (MIC)” value [1] was “+++ (MIC ≦ 4 μg/mL)”.

In the case of `Cn1cc(NC(=O)c2cc3ccccc3cn2)cc1C(=O)Nc1ccc(C(=O)Nc2cn(C)c(C(=O)NCCNC(CO)CO)n2)cc1` [Compound A-50], the “Minimum Inhibitory Concentration (MIC)” value (E. faecalis ATCC 29212) is reported as “++ (4 < MIC < 12 μg/mL)”, the “Minimum Inhibitory Concentration (MIC)” value (C. albicans ATCC 38247) is reported as >32 µg/mL and the “Minimum Inhibitory Concentration (MIC)” value (S. aureus ATCC 27660) is reported as “+++ (MIC ≦ 4 μg/mL)”. The “Minimum Inhibitory Concentration (MIC)” value (S. aureus ATCC 13709) was “+++ (MIC ≦ 4 μg/mL)”, the “Minimum Inhibitory Concentration (MIC)” value (E. coli ATCC 25922) was >32 µg/mL and the “Minimum Inhibitory Concentration (MIC)” value (S. pneumoniae ATCC 49619) was “+++ (MIC ≦ 4 μg/mL)”. The “Minimum Inhibitory Concentration (MIC)” value (B. cereus ATCC 11778) was “+ (12 ≦ MIC ≦ 32 μg/mL)” and the “Minimum Inhibitory Concentration (MIC)” value [1] was >32 µg/mL.

For `C[C@@H]1CN(CCNC(=O)c2nc(NC(=O)c3ccc(NC(=O)c4cc(NC(=O)c5cc6ccccc6cn5)cn4C)cc3)cn2C)C[C@H](C)O1` [Compound A-51], the “Minimum Inhibitory Concentration (MIC)” value (E. faecalis ATCC 29212) was “+++ (MIC ≦ 4 μg/mL)”, the “Minimum Inhibitory Concentration (MIC)” value (C. albicans ATCC 38247) was >32 µg/mL and the “Minimum Inhibitory Concentration (MIC)” value (S. aureus ATCC 27660) was “+++ (MIC ≦ 4 μg/mL)”. For the same compound, the “Minimum Inhibitory Concentration (MIC)” value (S. aureus ATCC 13709) was “+++ (MIC ≦ 4 μg/mL)”, the “Minimum Inhibitory Concentration (MIC)” value (E. coli ATCC 25922) was >32 µg/mL and the “Minimum Inhibitory Concentration (MIC)” value (S. pneumoniae ATCC 49619) was “+++ (MIC ≦ 4 μg/mL)”. For the same compound, the “Minimum Inhibitory Concentration (MIC)” value (B. cereus ATCC 11778) was “+++ (MIC ≦ 4 μg/mL)” and the “Minimum Inhibitory Concentration (MIC)” value [1] was “+++ (MIC ≦ 4 μg/mL)”.
